Data on 7 compounds can be found in PMC10481364 (The Journal of Biological Chemistry, 2023).

The target of one data set is T1, CYP17A1 (Homo sapiens, UniProt P05093).
T1 sequence (P05093 with tags, fused parts or gaps): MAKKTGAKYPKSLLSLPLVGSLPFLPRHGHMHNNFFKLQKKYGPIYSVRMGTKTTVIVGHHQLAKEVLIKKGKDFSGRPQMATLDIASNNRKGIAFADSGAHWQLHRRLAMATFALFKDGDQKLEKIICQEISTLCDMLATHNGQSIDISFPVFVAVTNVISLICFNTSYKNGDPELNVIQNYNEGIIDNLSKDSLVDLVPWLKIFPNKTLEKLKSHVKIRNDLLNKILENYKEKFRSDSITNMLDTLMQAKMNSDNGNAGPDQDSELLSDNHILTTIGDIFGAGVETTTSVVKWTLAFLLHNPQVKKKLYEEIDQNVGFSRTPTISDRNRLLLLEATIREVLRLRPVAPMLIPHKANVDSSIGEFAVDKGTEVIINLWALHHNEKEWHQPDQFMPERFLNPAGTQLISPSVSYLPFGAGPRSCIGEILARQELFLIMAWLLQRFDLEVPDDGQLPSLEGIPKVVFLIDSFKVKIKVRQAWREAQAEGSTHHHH
The data set is described as follows: UV-visible spectral ligand binding assay, isolated CYP17A1. The conditions noted are these: difference spectra.

A further data set has as its target T2, FMND/CYP17A1 (Homo sapiens, UniProt P05093+P16435).
T2 sequence (P16435+P05093 with tags, fused parts or gaps): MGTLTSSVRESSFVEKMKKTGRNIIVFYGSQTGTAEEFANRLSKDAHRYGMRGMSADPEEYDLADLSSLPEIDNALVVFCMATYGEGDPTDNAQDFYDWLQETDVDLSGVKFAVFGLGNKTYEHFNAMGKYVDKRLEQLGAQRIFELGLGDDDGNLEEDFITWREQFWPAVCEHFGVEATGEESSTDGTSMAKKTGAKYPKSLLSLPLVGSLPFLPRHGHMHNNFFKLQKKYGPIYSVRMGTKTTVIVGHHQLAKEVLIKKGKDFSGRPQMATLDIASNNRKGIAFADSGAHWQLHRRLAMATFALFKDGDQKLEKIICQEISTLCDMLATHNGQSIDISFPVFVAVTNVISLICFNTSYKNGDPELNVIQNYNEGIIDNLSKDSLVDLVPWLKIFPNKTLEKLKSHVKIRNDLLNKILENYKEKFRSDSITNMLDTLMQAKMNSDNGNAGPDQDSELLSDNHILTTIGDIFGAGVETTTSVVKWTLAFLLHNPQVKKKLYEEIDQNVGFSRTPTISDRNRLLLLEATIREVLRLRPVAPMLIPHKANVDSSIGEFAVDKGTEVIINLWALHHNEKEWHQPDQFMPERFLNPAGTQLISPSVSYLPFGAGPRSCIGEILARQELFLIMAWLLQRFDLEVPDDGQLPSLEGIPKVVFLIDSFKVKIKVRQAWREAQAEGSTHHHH
The data set is classed as binding. As to conditions: for spectral shift (binding mode): difference spectra, FMND/CYP17A1 fusion, FMN domain oxidized.

In data set [1] the target is T3, FMND/CYP3A4 (Homo sapiens, UniProt P08684). As to conditions: FMND/CYP3A4 compared with CYP3A4.
A further data set concerns the target T4, CYP2A6 (Homo sapiens, UniProt P11509).
T4 sequence (P11509 with tags, fused parts or gaps): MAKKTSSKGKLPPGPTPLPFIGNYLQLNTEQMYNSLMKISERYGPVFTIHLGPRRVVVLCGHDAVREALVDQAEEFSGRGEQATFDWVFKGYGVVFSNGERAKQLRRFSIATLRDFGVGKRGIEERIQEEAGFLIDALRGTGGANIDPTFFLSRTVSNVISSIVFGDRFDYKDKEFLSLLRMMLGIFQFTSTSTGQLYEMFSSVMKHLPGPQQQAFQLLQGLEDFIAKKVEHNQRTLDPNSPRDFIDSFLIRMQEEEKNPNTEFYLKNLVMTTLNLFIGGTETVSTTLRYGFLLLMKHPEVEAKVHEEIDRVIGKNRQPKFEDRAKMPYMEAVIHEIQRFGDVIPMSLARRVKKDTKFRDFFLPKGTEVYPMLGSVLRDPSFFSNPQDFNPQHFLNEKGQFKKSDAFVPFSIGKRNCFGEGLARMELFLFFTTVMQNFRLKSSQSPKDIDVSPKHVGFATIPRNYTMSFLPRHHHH
The data set is described as follows: UV-visible spectral ligand binding assay, isolated CYP2A6. As to conditions: difference spectra.

For data set [2], the target named is T5, FMND/CYP2A6 (Homo sapiens, UniProt P11509).
T5 sequence (P11509 with tags, fused parts or gaps): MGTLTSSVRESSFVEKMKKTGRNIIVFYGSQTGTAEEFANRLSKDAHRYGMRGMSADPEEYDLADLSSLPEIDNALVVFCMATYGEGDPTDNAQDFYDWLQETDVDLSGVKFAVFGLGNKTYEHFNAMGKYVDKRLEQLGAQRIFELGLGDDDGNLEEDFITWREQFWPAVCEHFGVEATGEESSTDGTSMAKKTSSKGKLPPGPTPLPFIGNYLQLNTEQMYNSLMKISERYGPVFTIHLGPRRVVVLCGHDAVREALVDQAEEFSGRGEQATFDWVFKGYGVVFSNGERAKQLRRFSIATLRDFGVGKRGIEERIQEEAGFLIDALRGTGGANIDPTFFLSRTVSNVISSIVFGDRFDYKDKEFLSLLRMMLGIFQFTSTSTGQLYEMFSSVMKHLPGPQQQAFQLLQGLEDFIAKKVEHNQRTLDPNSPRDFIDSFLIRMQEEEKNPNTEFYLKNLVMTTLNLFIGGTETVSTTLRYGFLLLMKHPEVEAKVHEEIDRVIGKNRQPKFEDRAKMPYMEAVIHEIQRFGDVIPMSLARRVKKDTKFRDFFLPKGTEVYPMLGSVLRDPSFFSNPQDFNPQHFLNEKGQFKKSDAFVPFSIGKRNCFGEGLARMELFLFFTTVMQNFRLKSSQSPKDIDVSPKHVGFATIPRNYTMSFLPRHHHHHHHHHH
The data set is classed as binding. The conditions noted are these: for spectral shift (binding mode): difference spectra, FMND/CYP2A6 fusion, FMN domain oxidized.

Data set [3] concerns the target T5, FMND/CYP2A6. The data set is classed as biochemical. As to conditions: coumarin metabolism to 7-hydroxycoumarin, cumene hydroperoxide, FMND/CYP2A6 vs CYP2A6.
The target in data set [4] is T3, FMND/CYP3A4. The data set is classed as biochemical. The conditions noted are these: hydrocortisone metabolism to 6β-hydroxycortisol, cumene hydroperoxide, FMND/CYP3A4 vs CYP3A4.
The target in a further data set is T6, FMND/CYP21A2 (Homo sapiens, UniProt P08686+P16435, R103K).
T6 sequence (P16435+P08686 with tags, fused parts or gaps P08686:R103K): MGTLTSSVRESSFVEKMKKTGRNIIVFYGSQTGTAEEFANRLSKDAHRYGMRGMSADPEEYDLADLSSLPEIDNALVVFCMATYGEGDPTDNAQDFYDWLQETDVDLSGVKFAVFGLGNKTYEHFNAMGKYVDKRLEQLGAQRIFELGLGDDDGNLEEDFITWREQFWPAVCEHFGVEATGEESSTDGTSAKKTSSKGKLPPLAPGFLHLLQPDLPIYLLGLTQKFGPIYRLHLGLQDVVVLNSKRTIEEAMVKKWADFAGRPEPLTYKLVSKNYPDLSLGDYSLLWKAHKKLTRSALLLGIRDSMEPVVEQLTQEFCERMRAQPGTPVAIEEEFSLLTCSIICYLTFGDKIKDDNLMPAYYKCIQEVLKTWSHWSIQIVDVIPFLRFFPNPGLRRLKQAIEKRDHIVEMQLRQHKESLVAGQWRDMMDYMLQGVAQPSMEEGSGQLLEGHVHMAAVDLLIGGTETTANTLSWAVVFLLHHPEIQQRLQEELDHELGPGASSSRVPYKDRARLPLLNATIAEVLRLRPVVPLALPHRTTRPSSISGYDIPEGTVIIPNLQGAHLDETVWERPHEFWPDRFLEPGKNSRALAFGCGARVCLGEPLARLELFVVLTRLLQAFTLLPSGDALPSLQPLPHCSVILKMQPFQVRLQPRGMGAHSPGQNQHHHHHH
The data set is classed as binding. As to conditions: FMND/CYP21A2 compared with CYP21A2.

The next data set concerns FMND/CYP2D6. The data set is classed as binding, human. The conditions noted are these: FMND/CYP2D6 compared with CYP2D6.
The mark [5] stands for this setting: FMND/CYP17A1 compared with CYP17A1.
[6] abbreviates: FMND/CYP2A6 compared with CYP2A6.

“Also recorded” adds a separate entry of the source.

In the case of `CC(=O)[C@@]1(O)CC[C@H]2[C@@H]3CC=C4C[C@@H](O)CC[C@]4(C)[C@H]3CC[C@@]21C` [17α-hydroxypregnenolone], the “spectral shift (binding mode)” value on CYP17A1 was “type I”. For the same compound, at FMND/CYP17A1 (setting [5]), the “decrease in Kd by FMN domain fusion” value worked out at 12%; the “effect of FMN domain fusion on saturation (ΔAmax), in words” value (“effect … (ΔAmax), in words” below) is on record as “little effect”; the “increase in overall binding efficiency (ΔAmax/Kd) by FMN domain fusion” value stood at 16%. Further, on FMND/CYP17A1, the “spectral shift (binding mode)” value is “type I”.

On to `Clc1ccccc1C(c1ccccc1)(c1ccccc1)n1ccnc1` [clotrimazole], for which, on FMND/CYP3A4 [1], the “reduction in the Kd value by FMND fusion” value is reported as 49% and the “reduction in total binding / final saturation (ΔAmax) by FMND fusion” value came out at 58%.

`O=c1ccc2ccccc2o1` [coumarin]: the “spectral shift (binding mode)” value on CYP2A6 was “type I”. Also, on FMND/CYP2A6 [2] (setting [6]), the “change in total ligand binding by FMN domain fusion, in words” value was “relatively little change” and the “increase in the Kd value by FMN domain fusion” value is reported as “more than 2 fold”. On FMND/CYP2A6 [2], the “spectral shift (binding mode)” value is “type I”. On FMND/CYP2A6 [3], the “effect on Km, in words” value is reported as “little effect” and the “effect on catalytic efficiency, in words” value was “decreased”.

With `C[C@]12CCC(=O)C=C1CC[C@@H]1[C@@H]2[C@@H](O)C[C@@]2(C)[C@H]1CC[C@]2(O)C(=O)CO` [hydrocortisone], on FMND/CYP3A4 [4], the “decrease in Km by addition of the FMN domain” value is listed as roughly 30% and the “decrease in kcat by addition of the FMN domain” value was roughly 21%. On FMND/CYP3A4 [1], the “reduction in the Kd value by FMND fusion” value worked out at 30% and the “reduction in total binding / final saturation (ΔAmax) by FMND fusion” value came out at 33%.

Consider `CC(=O)N1CCN(c2ccc(OCC3COC(Cn4ccnc4)(c4ccc(Cl)cc4Cl)O3)cc2)CC1` (stereo not shown) [ketoconazole], for which the “effect … (ΔAmax), in words” value at FMND/CYP17A1 (setting [5]) was “no significant changes; also recorded: essentially no effect”. Also, on FMND/CYP21A2, the “decrease in total / maximal absorbance change (ΔAmax) by FMN domain fusion” value is reported as roughly 30% and the “increase in the dissociation constant by FMN domain fusion” value is on record as 31%.

In the case of `CC[C@@H]1C(=O)OC[C@@H]1Cc1cncn1C` [pilocarpine], in the data set with FMND/CYP2D6, the “increase in affinity by FMN domain fusion” value came out at 37%, the “increase in ΔAmax/Kd binding efficiency by FMN domain fusion” value amounted to 32% and the “reduction in total binding at saturation by FMN domain fusion” value amounted to 17%. Besides, the “spectral shift (binding mode)” value at CYP2A6 is “type II”. Also, on FMND/CYP2A6 [2] (setting [6]), the “change in the affinity by FMN domain fusion, in words” value is recorded as “no change” and the “decrease in total binding (ΔAmax) by FMN domain fusion” value was determined as 30%. Further, the “spectral shift (binding mode)” value at FMND/CYP2A6 [2] is reported as “type II”.

`CC(=O)[C@H]1CC[C@H]2[C@@H]3CC=C4C[C@@H](O)CC[C@]4(C)[C@H]3CC[C@]12C` [pregnenolone]: the “spectral shift (binding mode)” value at CYP17A1 was “type I”. Further, on FMND/CYP17A1 (setting [5]), the “effect of FMN domain fusion on binding efficiency, in words” value was “largely unchanged” and the “effect … (ΔAmax), in words” value is reported as “increased”. In addition, the “spectral shift (binding mode)” value at FMND/CYP17A1 is recorded as “type I”.
